Results reported in patent publication US12606552B2, “Bifunctional compound, preparation method therefor, and use thereof” (SUZHOU KINTOR PHARMACEUTICALS, INC., priority 2020, dated 2026).

What follows are compounds tested against T1, AR (Homo sapiens, UniProt P10275, T878A) (assay: Effects of compounds on AR expression in LNCaP cells (ELISA, DC50)). Details: 24 hours of drug treatment, AR by ELISA.
T1 sequence (P10275 1-920 T878A): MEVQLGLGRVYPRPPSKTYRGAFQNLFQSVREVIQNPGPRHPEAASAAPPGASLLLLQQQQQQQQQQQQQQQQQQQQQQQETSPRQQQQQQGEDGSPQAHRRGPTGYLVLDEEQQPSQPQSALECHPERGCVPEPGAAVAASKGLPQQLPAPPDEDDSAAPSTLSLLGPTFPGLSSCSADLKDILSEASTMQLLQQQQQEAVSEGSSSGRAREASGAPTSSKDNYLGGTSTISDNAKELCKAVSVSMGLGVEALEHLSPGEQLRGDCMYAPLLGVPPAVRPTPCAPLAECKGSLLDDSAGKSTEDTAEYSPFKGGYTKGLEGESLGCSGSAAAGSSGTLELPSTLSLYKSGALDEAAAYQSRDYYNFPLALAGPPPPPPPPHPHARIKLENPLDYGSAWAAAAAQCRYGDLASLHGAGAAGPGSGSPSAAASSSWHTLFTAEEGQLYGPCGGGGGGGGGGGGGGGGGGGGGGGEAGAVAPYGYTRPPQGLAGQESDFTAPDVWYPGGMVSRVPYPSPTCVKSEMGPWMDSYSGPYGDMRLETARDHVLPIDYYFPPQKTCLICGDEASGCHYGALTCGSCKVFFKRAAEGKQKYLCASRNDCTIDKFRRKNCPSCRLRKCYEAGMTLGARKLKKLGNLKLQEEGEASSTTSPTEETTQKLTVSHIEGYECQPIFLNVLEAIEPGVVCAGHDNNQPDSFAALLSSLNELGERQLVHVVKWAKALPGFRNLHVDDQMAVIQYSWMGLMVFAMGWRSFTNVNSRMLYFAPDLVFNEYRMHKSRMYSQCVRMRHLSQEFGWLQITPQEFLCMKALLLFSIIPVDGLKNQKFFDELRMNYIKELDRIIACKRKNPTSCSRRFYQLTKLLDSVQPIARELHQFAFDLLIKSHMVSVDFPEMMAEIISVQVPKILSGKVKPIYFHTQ
Format: cell-based
Design: Measurement of the Effects of Drugs on the Expression of AR in Cells by ELISA Method; endogenous in cells; host or cells: LNCaP
Procedure: Activity Assay Example 1: Effects of Compounds on AR Expression in LNCaP Cells
1. Cell Line and Cell Culture
Human prostate cancer cells LNCaP (Shanghai Chinese Academy of Sciences Cell Bank). LNCaP was cultured in 1640 medium containing 10% fetal bovine serum. The cells grow in clusters, with weak adhesion to the bottom of the culture flask, slow proliferation, with a multiplication time of 72 h. The cells are closely adhered to each other and need to be digested with 0.05% trypsin containing 0.025% EDTA. The cells were passaged every 3 days. The cells were cultured at 37° C. and 5% CO2 in a humidified incubator
2. Cell plating: The supernatant was discarded, and the Lncap cells in the logarithmic growth phase were taken, washed with PBS once, and added with appropriate 0.05% trypsin digestion solution to be fully digested into single cell suspension, and centrifuged, resuspended and counted to make the number of cells about 15,000 per well, then inoculated in a 96-well plate, placed at 37° C., 5% CO2 and cultured overnight for 24 h.
3. Preparation and Addition of Compound Solutions
About 2 mg of each compound was weighed and dissolved in DMSO to make the stock solution with a concentration of 10 mmol/L. Dilution process (final concentration dilution: 2, 0.667, 0.222, 0.074, 0.0245, 0.008, 0.003, 0.001, 0.0003, 0.0001 μmol/L): 10 centrifuge tubes with a volume of 1.5 mL were taken and numbered 1, 2, 3, 4, 5, 6, 7, 8, 9, and 10, 80 μL DMSO was added to tube No. 1, and 60 μL DMSO was added to tubes No. 2 to No. 10, 20 μL of the stock solution was pipetted to tube No. 1 and mixed well; 30 μL was pipetted from tube No. 1 into tube No. 2 and mixed well. 30 μL was pipetted from tube No. 2 into tube No. 3 and mixed well, and so forth, to obtain samples No. 4-10, and to obtain working solutions of compounds of different concentrations respectively. 2 μL was pipetted from the above-mentioned tubes No. 1-10 into each corresponding sterile deep-well plates, added with 198 μL of culture medium, and mixed well. 11 ul was added to each well of the 96-well cell plate cultured overnight to obtain the corresponding desired concentrations (2, 0.667, 0.222, 0.074, 0.0245, 0.008, 0.003, 0.001, 0.0003, 0.0001 μmol/L).
4. Measurement of the Effects of Drugs on the Expression of AR in Cells by ELISA Method
After 24 hours of drug treatment, the supernatant was removed, and 200 μL of PBS was added to wash cells, and then the supernatant was removed, and 100 μL of cell lysate was added to lyse cells on ice for 20 min, then the cell lysate was centrifuged at 4000 rpm for 20 min at 4° C. and the supernatant was taken for later use. The measurement steps of the supernatant were according to the ELISA kit instructions:
4.1 The slats required for the test were taken out from the sealed bag that has been equilibrated to room temperature. Please put the unused slats and desiccant back into the aluminum foil bag and compress the self-sealing strip, seal the bag, and store at 4° C.
4.2 Standards and sample diluents were added to blank wells, and different concentrations of standards (10 ul/well) and sample diluents (90 ul/well) were added to the remaining corresponding wells, and the reaction wells were sealed with sealing tape, and refrigerated at 4° C. overnight.
4.3 Primary antibody was diluted with dilution buffer to the corresponding concentration and added to each well in 100 ul/well. The reaction wells were sealed with sealing tape and incubated at 37° C. for 60 min.
4.4 Secondary antibody was diluted with dilution buffer to the corresponding concentration and added to each well in 100 ul/well. The reaction wells were sealed with sealing tape and incubated at 37° C. for 30 min.
4.5 The reaction wells were added with 100 ul/well of substrate (TMB) and incubated at room temperature for 30 min.
4.6 The reaction wells were added with 100 ul/well of stop solution, mixed well and then the OD450 value was measured with a microplate reader. […]

Which DC50 does the source give for `Cc1ncsc1-c1ccc(CNC(=O)[C@@H]2C[C@@H](O)CN2C(=O)[C@@H](NC(=O)COCCCCN2CCN(c3ccc(N4C(=S)N(c5ccc(C#N)c(C(F)(F)F)c5F)C(=O)C4(C)C)cn3)CC2)C(C)(C)C)cc1` [Compound A106] here?
Its DC50 is 402 nM.

For `Cc1ncsc1-c1ccc(CNC(=O)[C@@H]2C[C@@H](O)CN2C(=O)[C@@H](OC(=O)COCCCCOc2ccc(-c3ncc(N4C(=S)N(c5ccc(C#N)c(C(F)(F)F)c5F)C(=O)C4(C)C)cc3F)cc2F)C(C)(C)C)cc1` [Compound A107], which DC50 is on record?
The DC50 was 107 nM.

With `Cc1ncsc1-c1ccc([C@H](C)NC(=O)[C@@H]2C[C@@H](O)CN2C(=O)[C@@H](NC(=O)COCCCCOc2ccc(-c3ccc(N4C(=S)N(c5ccc(C#N)c(C(F)(F)F)c5F)C(=O)C4(C)C)cn3)cc2C(F)(F)F)C(C)(C)C)cc1` [Compound A113] as the compound, how does the DC50 read?
The DC50 was 193 nM.

Which DC50 does the source give for `CC(C)(C)[C@H](NC(=O)COCCCCOc1c(F)cc(-c2ncc(N3C(=S)N(c4ccc(C#N)c(C(F)(F)F)c4F)C(=O)C3(C)C)cc2C(F)(F)F)cc1F)C(=O)N1C[C@H](O)C[C@H]1C(=O)NCc1ccccc1` [Compound A114] here?
Its DC50 is 79.3 nM.

For `CC(C)(C)[C@H](NC(=O)COCCCCOc1c(F)cc(-c2ncc(N3C(=S)N(c4ccc(C#N)c(C(F)(F)F)c4F)C(=O)C3(C)C)cc2C(F)(F)F)cc1F)C(=O)N1C[C@H](O)C[C@H]1C(=O)NCc1ccc(C(N)=O)cc1` [Compound A116], which DC50 is on record?
The DC50 was 370 nM.

How did the DC50 turn out when `CC(C)(C)[C@H](NC(=O)COCCCCCOc1ccc(-c2ncc(N3C(=S)N(c4ccc(C#N)c(C(F)(F)F)c4F)C(=O)C3(C)C)cc2F)cc1F)C(=O)N1C[C@H](O)C[C@H]1C(=O)NCc1ccc(C(N)=O)cc1` [Compound A117] was run?
Its DC50 is 111 nM.

Which DC50 does the source give for `CC(C)(C)[C@H](NC(=O)COCCCCCOc1ccc(-c2ncc(N3C(=S)N(c4ccc(C#N)c(C(F)(F)F)c4F)C(=O)C3(C)C)cc2F)cc1F)C(=O)N1C[C@H](O)C[C@H]1C(=O)NCc1ccccc1` [Compound A118] here?
The DC50 was over 2000 nM.

With `CC(C)(C)[C@H](NC(=O)COCCCCOc1ccc(-c2ncc(N3C(=S)N(c4ccc(C#N)c(C(F)(F)F)c4F)C(=O)C3(C)C)cc2F)cc1F)C(=O)N1C[C@H](O)C[C@H]1C(=O)NCc1ccc(C(N)=O)cc1` [Compound A119] as the compound, how does the DC50 read?
Its DC50 is 7.2 nM.

`CC(C)(C)[C@H](NC(=O)COCCCCOc1ccc(-c2ncc(N3C(=S)N(c4ccc(C#N)c(C(F)(F)F)c4F)C(=O)C3(C)C)cc2F)cc1F)C(=O)N1C[C@H](O)C[C@H]1C(=O)NCc1ccccc1` [Compound A120] was tested. Which DC50 did it give?
Its DC50 is 216 nM.

`CC(C)(C)[C@H](NC(=O)COCCCCOc1ccc(-c2ccc(N3C(=S)N(c4ccc(C#N)c(C(F)(F)F)c4F)C(=O)C3(C)C)cn2)cc1C(F)(F)F)C(=O)N1C[C@H](O)C[C@H]1C(=O)NCc1ccc(C(N)=O)cc1` [Compound A121] was tested. Which DC50 did it give?
The DC50 was 336 nM.

How did the DC50 turn out when `CC(C)(C)[C@H](NC(=O)COCCCCOc1ccc(-c2ccc(N3C(=S)N(c4ccc(C#N)c(C(F)(F)F)c4F)C(=O)C3(C)C)cn2)cc1C(F)(F)F)C(=O)N1C[C@H](O)C[C@H]1C(=O)NCc1ccccc1` [Compound A122] was run?
Its DC50 is 155 nM.

For `Cc1ncsc1-c1ccc(CNC(=O)[C@@H]2C[C@@H](O)CN2C(=O)[C@@H](NC(=O)CCCCCC#Cc2ncc(N3C(=S)N(c4ccc(C#N)c(C(F)(F)F)c4F)C(=O)C3(C)C)cc2F)C(C)(C)C)cc1` [Compound A125], which DC50 is on record?
The DC50 was over 2000 nM.

For `CC(C)(C)[C@H](NC(=O)COCCCCOc1ccc(-c2ccc(N3C(=S)N(c4ccc(C#N)c(C(F)(F)F)c4F)C(=O)C3(C)C)cn2)cn1)C(=O)N1C[C@H](O)C[C@H]1C(=O)NCc1ccc(C(N)=O)cc1` [Compound A127], which DC50 is on record?
The DC50 was 89.3 nM.

With `CC(C)(C)[C@H](NC(=O)COCCCCOc1ccc(-c2ccc(N3C(=S)N(c4ccc(C#N)c(C(F)(F)F)c4F)C(=O)C3(C)C)cn2)cn1)C(=O)N1C[C@H](O)C[C@H]1C(=O)NCc1ccccc1` [Compound A128] as the compound, how does the DC50 read?
Its DC50 is 124 nM.

With `CC(C)(C)[C@H](NC(=O)COCCOc1ccc(-c2ncc(N3C(=S)N(c4ccc(C#N)c(C(F)(F)F)c4F)C(=O)C3(C)C)cc2F)cc1F)C(=O)N1C[C@H](O)C[C@H]1C(=O)NCc1ccc(C(N)=O)cc1` [Compound A129] as the compound, how does the DC50 read?
Its DC50 is 67.9 nM.

`CC(C)(C)[C@H](NC(=O)COCCOc1ccc(-c2ncc(N3C(=S)N(c4ccc(C#N)c(C(F)(F)F)c4F)C(=O)C3(C)C)cc2F)cc1F)C(=O)N1C[C@H](O)C[C@H]1C(=O)NCc1ccccc1` [Compound A130] was tested. Which DC50 did it give?
The DC50 was 131 nM.

Which DC50 does the source give for `CC(C)(C)[C@H](NC(=O)COCCCCOc1ccc(-c2ncc(N3C(=S)N(c4ccc(C#N)c(C(F)(F)F)c4F)C(=O)C3(C)C)cc2F)c(C(F)(F)F)c1)C(=O)N1C[C@H](O)C[C@H]1C(=O)NCc1ccc(C(N)=O)cc1` [Compound A131] here?
Its DC50 is 34.8 nM.

For `CC(C)(C)[C@H](NC(=O)COCCCCOc1ccc(-c2ncc(N3C(=S)N(c4ccc(C#N)c(C(F)(F)F)c4F)C(=O)C3(C)C)cc2F)c(C(F)(F)F)c1)C(=O)N1C[C@H](O)C[C@H]1C(=O)NCc1ccccc1` [Compound A132], which DC50 is on record?
The DC50 was 161 nM.

For `Cc1ncsc1-c1ccc(CNC(=O)[C@@H]2C[C@@H](O)CN2C(=O)[C@@H](NC(=O)COCCCCN2CC=C(c3ccc(N4C(=S)N(c5ccc(C#N)c(C(F)(F)F)c5F)C(=O)C4(C)C)cn3)CC2)C(C)(C)C)cc1` [Compound A135], which DC50 is on record?
Its DC50 is 1540 nM.

With `Cc1ncsc1-c1ccc(CNC(=O)[C@@H]2C[C@@H](O)CN2C(=O)[C@@H](NC(=O)[C@H]2CC[C@H](CNC(=O)CCCc3ccc(N4C(=S)N(c5ccc(C#N)c(C(F)(F)F)c5F)C(=O)C4(C)C)cn3)CC2)C(C)(C)C)cc1` [Compound A140] as the compound, how does the DC50 read?
Its DC50 is 1500 nM.

Which DC50 does the source give for `Cc1ncsc1-c1ccc(CNC(=O)[C@@H]2C[C@@H](O)CN2C(=O)[C@@H](NC(=O)COCCCCN2CCC(c3ccc(N4C(=S)N(c5ccc(C#N)c(C(F)(F)F)c5F)C(=O)C4(C)C)cn3)CC2)C(C)(C)C)cc1` [Compound A141] here?
Its DC50 is over 2000 nM.

With `Cc1ncsc1-c1ccc(CNC(=O)[C@@H]2C[C@@H](O)CN2C(=O)[C@@H]2CCCN2C(=O)COCCCCOc2ccc(-c3ncc(N4C(=S)N(c5ccc(C#N)c(C(F)(F)F)c5F)C(=O)C4(C)C)cc3F)cc2F)cc1` [Compound A142] as the compound, how does the DC50 read?
The DC50 was over 2000 nM.
